In patent US8192962B2, “Processes for detecting toxic substances” (Daikin Industries, Ltd., priority 2001, dated 2012):

Tests used:
[1] = tested on: Detoxification protein genes; assay: DNA chip mRNA expression in yeast, detoxification protein genes (Table 8); type: cell-based, Saccharomyces cerevisiae S288C
How it was run: (§1)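 Measured as treated-to-untreated fluorescence ratio on a full-genome yeast DNA chip. Cells (S288C, YPD, 25° C.) were exposed in log phase for two hours to one chemical, dosed to curb growth without killing.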

[2] = tested on: DNA repair protein genes; assay: DNA chip mRNA expression in yeast, DNA repair protein genes (Table 3); type: cell-based, Saccharomyces cerevisiae S288C; details: incubated two hours, concentrations as in the 1st table
How it was run: as §1

## CN(C)C(=S)SSC(=S)N(C)C [(10), Tetramethylthiuram disulfide]
[1]; yeast gene YOR251C
  The level of expressed mRNA in the presence of chemical substance/The level of expressed mRNA in the absence of chemical substance: 0.8
[1]; yeast gene YOR273C
  The level of expressed mRNA in the presence of chemical substance/The level of expressed mRNA in the absence of chemical substance: 0.5
[1]; yeast gene YPL163C
  The level of expressed mRNA in the presence of chemical substance/The level of expressed mRNA in the absence of chemical substance: 0.4
[1]; yeast gene YPR200C
  The level of expressed mRNA in the presence of chemical substance/The level of expressed mRNA in the absence of chemical substance: 3.8
[2]; yeast gene YAL015C
  The level of expressed mRNA in the presence of chemical substance/The level of expressed mRNA in the absence of chemical substance: 2.7
[2]; yeast gene YAR007C
  The level of expressed mRNA in the presence of chemical substance/The level of expressed mRNA in the absence of chemical substance: 1.7
[2]; yeast gene YBL019W
  The level of expressed mRNA in the presence of chemical substance/The level of expressed mRNA in the absence of chemical substance: 1.4
[2]; yeast gene YBR073W
  The level of expressed mRNA in the presence of chemical substance/The level of expressed mRNA in the absence of chemical substance: 1.8
[2]; yeast gene YBR272C
  The level of expressed mRNA in the presence of chemical substance/The level of expressed mRNA in the absence of chemical substance: 2.7
[2]; yeast gene YCR014C
  The level of expressed mRNA in the presence of chemical substance/The level of expressed mRNA in the absence of chemical substance: 1.0
[2]; yeast gene YDL017W
  The level of expressed mRNA in the presence of chemical substance/The level of expressed mRNA in the absence of chemical substance: 1.8
[2]; yeast gene YDL059C
  The level of expressed mRNA in the presence of chemical substance/The level of expressed mRNA in the absence of chemical substance: 7.8
[2]; yeast gene YDL200C
  The level of expressed mRNA in the presence of chemical substance/The level of expressed mRNA in the absence of chemical substance: 1.8
[2]; yeast gene YDR054C
  The level of expressed mRNA in the presence of chemical substance/The level of expressed mRNA in the absence of chemical substance: 3.2
[2]; yeast gene YDR369C
  The level of expressed mRNA in the presence of chemical substance/The level of expressed mRNA in the absence of chemical substance: 1.8
[2]; yeast gene YEL019C
  The level of expressed mRNA in the presence of chemical substance/The level of expressed mRNA in the absence of chemical substance: 0.7
[2]; yeast gene YEL037C
  The level of expressed mRNA in the presence of chemical substance/The level of expressed mRNA in the absence of chemical substance: 1.2
[2]; yeast gene YER162C
  The level of expressed mRNA in the presence of chemical substance/The level of expressed mRNA in the absence of chemical substance: 1.6
[2]; yeast gene YFL014W
  The level of expressed mRNA in the presence of chemical substance/The level of expressed mRNA in the absence of chemical substance: 5.8
[2]; yeast gene YGL058W
  The level of expressed mRNA in the presence of chemical substance/The level of expressed mRNA in the absence of chemical substance: 1.8
[2]; yeast gene YGL091C
  The level of expressed mRNA in the presence of chemical substance/The level of expressed mRNA in the absence of chemical substance: 6.0
[2]; yeast gene YGL127C
  The level of expressed mRNA in the presence of chemical substance/The level of expressed mRNA in the absence of chemical substance: 1.5
[2]; yeast gene YGL163C
  The level of expressed mRNA in the presence of chemical substance/The level of expressed mRNA in the absence of chemical substance: 2.3
[2]; yeast gene YGL249W
  The level of expressed mRNA in the presence of chemical substance/The level of expressed mRNA in the absence of chemical substance: 2.4
[2]; yeast gene YGR180C
  The level of expressed mRNA in the presence of chemical substance/The level of expressed mRNA in the absence of chemical substance: 1.5
[2]; yeast gene YGR231C
  The level of expressed mRNA in the presence of chemical substance/The level of expressed mRNA in the absence of chemical substance: 2.3
[2]; yeast gene YGR258C
  The level of expressed mRNA in the presence of chemical substance/The level of expressed mRNA in the absence of chemical substance: 1.5
[2]; yeast gene YHR164C
  The level of expressed mRNA in the presence of chemical substance/The level of expressed mRNA in the absence of chemical substance: 3.1
[2]; yeast gene YIL036W
  The level of expressed mRNA in the presence of chemical substance/The level of expressed mRNA in the absence of chemical substance: 2.7
[2]; yeast gene YIL072W
  The level of expressed mRNA in the presence of chemical substance/The level of expressed mRNA in the absence of chemical substance: 2.1
[2]; yeast gene YIL143C
  The level of expressed mRNA in the presence of chemical substance/The level of expressed mRNA in the absence of chemical substance: 3.5
[2]; yeast gene YIL153W
  The level of expressed mRNA in the presence of chemical substance/The level of expressed mRNA in the absence of chemical substance: 1.1
[2]; yeast gene YIR002C
  The level of expressed mRNA in the presence of chemical substance/The level of expressed mRNA in the absence of chemical substance: 1.4
[2]; yeast gene YJL026W
  The level of expressed mRNA in the presence of chemical substance/The level of expressed mRNA in the absence of chemical substance: 1.1
[2]; yeast gene YJR046W
  The level of expressed mRNA in the presence of chemical substance/The level of expressed mRNA in the absence of chemical substance: 2.4
[2]; yeast gene YJR052W
  The level of expressed mRNA in the presence of chemical substance/The level of expressed mRNA in the absence of chemical substance: 2.3
[2]; yeast gene YKL145W
  The level of expressed mRNA in the presence of chemical substance/The level of expressed mRNA in the absence of chemical substance: 2.7
[2]; yeast gene YLR103C
  The level of expressed mRNA in the presence of chemical substance/The level of expressed mRNA in the absence of chemical substance: 0.5
[2]; yeast gene YLR233C
  The level of expressed mRNA in the presence of chemical substance/The level of expressed mRNA in the absence of chemical substance: 0.5
[2]; yeast gene YLR288C
  The level of expressed mRNA in the presence of chemical substance/The level of expressed mRNA in the absence of chemical substance: 1.3
[2]; yeast gene YML032C
  The level of expressed mRNA in the presence of chemical substance/The level of expressed mRNA in the absence of chemical substance: 1.1
[2]; yeast gene YML058W
  The level of expressed mRNA in the presence of chemical substance/The level of expressed mRNA in the absence of chemical substance: 1.2
[2]; yeast gene YMR035W
  The level of expressed mRNA in the presence of chemical substance/The level of expressed mRNA in the absence of chemical substance: 1.6
[2]; yeast gene YMR072W
  The level of expressed mRNA in the presence of chemical substance/The level of expressed mRNA in the absence of chemical substance: 1.2
[2]; yeast gene YMR096W
  The level of expressed mRNA in the presence of chemical substance/The level of expressed mRNA in the absence of chemical substance: 3.7
[2]; yeast gene YMR284W
  The level of expressed mRNA in the presence of chemical substance/The level of expressed mRNA in the absence of chemical substance: 1.8
[2]; yeast gene YNL213C
  The level of expressed mRNA in the presence of chemical substance/The level of expressed mRNA in the absence of chemical substance: 1.5
[2]; yeast gene YNL250W
  The level of expressed mRNA in the presence of chemical substance/The level of expressed mRNA in the absence of chemical substance: 2.3
[2]; yeast gene YNL261W
  The level of expressed mRNA in the presence of chemical substance/The level of expressed mRNA in the absence of chemical substance: 1.5
[2]; yeast gene YNL312W
  The level of expressed mRNA in the presence of chemical substance/The level of expressed mRNA in the absence of chemical substance: 2.5
[2]; yeast gene YOL043C
  The level of expressed mRNA in the presence of chemical substance/The level of expressed mRNA in the absence of chemical substance: 1.8
[2]; yeast gene YOR005C
  The level of expressed mRNA in the presence of chemical substance/The level of expressed mRNA in the absence of chemical substance: 1.5
[2]; yeast gene YOR386W
  The level of expressed mRNA in the presence of chemical substance/The level of expressed mRNA in the absence of chemical substance: 3.0
[2]; yeast gene YPL022W
  The level of expressed mRNA in the presence of chemical substance/The level of expressed mRNA in the absence of chemical substance: 1.6
[2]; yeast gene YPL164C
  The level of expressed mRNA in the presence of chemical substance/The level of expressed mRNA in the absence of chemical substance: 2.0
[2]; yeast gene YPL194W
  The level of expressed mRNA in the presence of chemical substance/The level of expressed mRNA in the absence of chemical substance: 3.1
[2]; yeast gene YPR025C
  The level of expressed mRNA in the presence of chemical substance/The level of expressed mRNA in the absence of chemical substance: 1.7
